# Data reported in patent EP1207159A1, “Aromaheterocyclic derivatives as dopamine D4 receptor antagonists” (TAISHO PHARMACEUTICAL CO. LTD, priority 1993, dated 1999).
# Structures can show the parent of a compound that is named as a salt.
# Key:
# [1] = molecular target: T1, Dopamine D2 Receptor (Rattus norvegicus, UniProt P61169); experiment: Dopamine D2 receptor binding assay ([3H]raclopride, rat striatum membrane); settings: 50% inhibition of [3H]raclopride (1 nM) binding, 25°C, an hour
# T1 construct: Rat striatum was homogenized in 50 mM Tris-hydrochloric acid buffer (pH 7.4), centrifuged at 48,000 × g; from tissue; host or cells: rat striatum membrane
# Procedure: Rat striatum membrane was used as a receptor preparation.
# [^3H]raclopride was used as [^3H]-labeled ligand.
# A binding reaction using the [^3H]-labeled ligand was carried out according to the following method as described in Mol. J. Pharmacol., 43, 749(1993).
# Preparation of Receptor Preparation: Rat striatum was homogenized in 50 mM Tris-hydrochloric acid buffer (pH 7.4), centrifuged at 48,000 × g, and the precipitate was washed once with a Tris-hydrochloric acid buffer. The precipitate was suspended in 50 mM Tris-hydrochloric acid buffer (pH 7.4) containing 120 mM NaCl, 1.5 mM KCl, 2 mM CaCl2 and 1 mM MgCl2 to give a membrane preparation.
# Dopamine D2 Receptor Binding Assay: The membrane preparation (0.5 mg of protein/ml), [^3H]raclopride (1 nM) and each test drug were reacted at 25°C for an hour.
# After completion of the reaction, the reaction solution was filtered by suction through a glass filter (GF/B), and the radioactivity on the filter was determined by a liquid scintillation spectrometer.
# The binding under the reaction in the presence of 10 µM haloperidol was defined as non-specific binding of [^3H]raclopride, and the difference between total binding and non-specific binding was defined as specific binding. […]
# [2] = molecular target: T2, human D4.2 receptor (Homo sapiens, UniProt P21917, DEL265-296); experiment: Dopamine D4 receptor binding assay ([3H]spiperone, CHO cell membranes); settings: 50% inhibition of [3H]spiperone binding; CHO cell membranes expressing human D4.2 receptor; 27°C, 2 hours
# T2 construct: expressed in transfected cells; host or cells: CHO cells (membranes)
# T2 sequence (P21917 with tags, fused parts or gaps DEL265-296): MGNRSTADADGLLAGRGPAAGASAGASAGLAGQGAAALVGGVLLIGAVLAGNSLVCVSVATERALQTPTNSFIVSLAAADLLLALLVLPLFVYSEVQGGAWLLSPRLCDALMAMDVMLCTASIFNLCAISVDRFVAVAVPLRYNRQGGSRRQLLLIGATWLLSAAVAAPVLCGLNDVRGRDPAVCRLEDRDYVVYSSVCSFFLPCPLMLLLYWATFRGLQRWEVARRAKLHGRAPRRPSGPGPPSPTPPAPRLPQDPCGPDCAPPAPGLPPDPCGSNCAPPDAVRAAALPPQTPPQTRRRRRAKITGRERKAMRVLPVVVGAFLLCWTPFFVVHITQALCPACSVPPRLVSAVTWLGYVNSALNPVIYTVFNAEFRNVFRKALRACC
# Procedure: Chinese hamster ovarium (CHO) cell membranes wherein human D4.2 receptor was expressed were used as a receptor preparation.
# [^3H]spiperone was used as [^3H]-labeled ligand.
# A binding reaction using the [^3H]-labeled ligand was carried out according to the following method as described in Eur. J. Pharmacol., 233, 173(1993).
# Dopamine D4.2 Receptor Binding Assay: The CHO cell membranes wherein human D4.2 receptor was expressed, [^3H]spiperone ([…]) and each test drug were reacted in 50 mM Tris-hydrochloric acid buffer (pH 7.4) containing 5 mM EDTA, 1.5 mM CaCl2, 5 mM KCl and 120 mM NaCl at 27°C for 2 hours.
# After completion of the reaction, the reaction solution was filtered by suction through a glass filter (GF/B), and the radioactivity on the filter was measured by a liquid scintillation spectrometer.
# The binding under the reaction in the presence of 10 µM haloperidol was defined as non-specific binding of [^3H]spiperone, and the difference between the total binding and the non-specific binding was defined as specific binding.
# T1 sequence (P61169 whole entry): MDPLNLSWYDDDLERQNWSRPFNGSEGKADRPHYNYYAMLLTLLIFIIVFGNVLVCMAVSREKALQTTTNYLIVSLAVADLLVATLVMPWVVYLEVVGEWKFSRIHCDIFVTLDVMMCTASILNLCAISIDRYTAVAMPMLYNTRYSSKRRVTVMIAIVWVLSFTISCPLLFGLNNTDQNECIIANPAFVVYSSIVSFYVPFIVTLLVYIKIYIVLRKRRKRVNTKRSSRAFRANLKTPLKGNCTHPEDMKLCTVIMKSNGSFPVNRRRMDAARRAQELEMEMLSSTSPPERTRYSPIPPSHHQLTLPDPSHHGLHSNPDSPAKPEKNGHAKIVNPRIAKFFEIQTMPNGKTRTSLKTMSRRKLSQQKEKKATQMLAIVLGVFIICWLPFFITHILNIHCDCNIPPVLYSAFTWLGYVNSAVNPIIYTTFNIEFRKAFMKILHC
IC50 [1] [nM],IC50 [2] [nM],Compound
89,1.12,Fc1ccc(C=C2CCN(CCc3cn[nH]c3-c3ccccc3)CC2)cc1 [Compound A-05]
521,4.53,Fc1ccc(-c2ncncc2CCN2CCC(=Cc3cccc(F)c3)CC2)cc1 [Compound A-11]

Compound,IC50 [1] [nM],IC50 [2] [nM]
"CSc1ncc(CCN2CCC(=Cc3ccccc3F)CC2)c(-c2ccc(F)cc2)n1 [Compound A-14, 4-(4-fluorophenyl)-5-[2-[4-(2-fluorobenzylidene)piperidin-1-yl]ethyl]-2-methylthiopyrimidine dihydrochloride]",148,12.6
